According to ChEMBL document CHEMBL4732123, “Discovery of 7-aminophenanthridin-6-one as a new scaffold for matrix metalloproteinase inhibitors with multitarget neuroprotective activity” (Eur J Med Chem, 2021):
Active and inactive are the calls of the source. The calls are words filed in the database; no cut-off is given here.

Legend:
Collagenase 3 [1] = target: T1, Collagenase 3 (Homo sapiens, UniProt P45452); experiment: Non-competitive inhibition of recombinant human MMP13 (104 to 274 residues) using Mca-Pro-Leu-Gly-Leu-Dpa-Ala-Arg-NH2 expressed in Escherichia coli expression system as substrate at 100 uM incubated for 15 mins followed by substrate addition and measured after 2 to 4 hrs by fluorescence based assay relative to control; settings: time 2-4.25 hrs
[2] = target: T2, 72 kDa type IV collagenase (Homo sapiens, UniProt P08253); experiment: Inhibition of recombinant human MMP2 (110 to 452 residues) using Mca-Pro-Leu-Gly-Leu-Dpa-Ala-Arg-NH2 expressed in yeast expression system as substrate incubated for 15 mins followed by substrate addition and measured after 2 to 4 hrs by fluorescence based assay
Target sequence in this assay (P08253 whole entry, the tested form may be a part): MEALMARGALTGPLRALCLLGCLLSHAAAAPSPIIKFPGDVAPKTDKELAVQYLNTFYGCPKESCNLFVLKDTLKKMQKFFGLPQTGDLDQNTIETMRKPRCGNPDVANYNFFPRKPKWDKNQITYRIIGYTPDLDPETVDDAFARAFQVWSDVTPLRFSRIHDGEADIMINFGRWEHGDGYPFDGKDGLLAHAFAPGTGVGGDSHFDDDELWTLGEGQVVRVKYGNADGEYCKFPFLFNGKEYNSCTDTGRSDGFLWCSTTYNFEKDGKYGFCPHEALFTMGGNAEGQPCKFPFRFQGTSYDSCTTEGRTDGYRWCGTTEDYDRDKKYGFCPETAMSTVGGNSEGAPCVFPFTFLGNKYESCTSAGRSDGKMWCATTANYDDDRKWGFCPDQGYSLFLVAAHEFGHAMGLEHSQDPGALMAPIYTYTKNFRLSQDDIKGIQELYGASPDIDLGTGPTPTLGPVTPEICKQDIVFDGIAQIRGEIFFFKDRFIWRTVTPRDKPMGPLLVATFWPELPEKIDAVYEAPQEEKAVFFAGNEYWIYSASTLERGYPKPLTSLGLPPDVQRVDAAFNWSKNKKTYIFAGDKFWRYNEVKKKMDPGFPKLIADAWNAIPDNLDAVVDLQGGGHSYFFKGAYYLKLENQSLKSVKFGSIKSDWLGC

SN-56 [3] = experiment: Neuroprotective activity against H2O2-induced lipid peroxidation in mouse SN-56 cells assessed as increase in MDA level incubated for 24 hrs by lipid peroxidation MDA assay kit method; format: functional, cell-based
Neutrophil collagenase [4] = target: T3, Neutrophil collagenase (Homo sapiens, UniProt P22894); experiment: Inhibition of recombinant human MMP8 (99 to 269 residues) using Mca-Pro-Leu-Gly-Leu-Dpa-Ala-Arg-NH2 expressed in Escherichia coli expression system as substrate incubated for 15 mins followed by substrate addition and measured after 2 to 4 hrs by fluorescence based assay
Target sequence in this assay (P22894 whole entry, the tested form may be a part): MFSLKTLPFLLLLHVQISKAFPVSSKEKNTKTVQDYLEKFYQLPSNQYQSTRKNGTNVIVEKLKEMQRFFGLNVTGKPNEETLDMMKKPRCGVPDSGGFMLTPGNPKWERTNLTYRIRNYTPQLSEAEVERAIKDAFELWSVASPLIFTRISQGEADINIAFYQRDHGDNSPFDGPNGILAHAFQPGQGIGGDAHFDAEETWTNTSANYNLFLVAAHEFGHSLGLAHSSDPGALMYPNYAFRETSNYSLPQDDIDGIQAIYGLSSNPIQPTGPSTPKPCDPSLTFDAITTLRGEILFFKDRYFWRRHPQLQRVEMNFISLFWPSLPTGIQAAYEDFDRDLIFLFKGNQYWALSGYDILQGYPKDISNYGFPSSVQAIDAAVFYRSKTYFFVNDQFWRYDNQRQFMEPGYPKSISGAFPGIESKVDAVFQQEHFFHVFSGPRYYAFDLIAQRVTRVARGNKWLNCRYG

[5] = Cytotoxicity against mouse SN-56 cells assessed as reduction in cell viability upto 100 uM incubated for 24 hrs by MTT assay; format: cell-based; settings: sn-56, 24 h
[6] = target: T4, Matrix metalloproteinase-9 (Homo sapiens, UniProt P14780); experiment: Inhibition of recombinant human MMP9 (107 to 449 residues) using Mca-Pro-Leu-Gly-Leu-Dpa-Ala-Arg-NH2 expressed in Escherichia coli expression system as substrate incubated for 15 mins followed by substrate addition and measured after 2 to 4 hrs by fluorescence based assay
[7] = Neuroprotective activity against H2O2-induced lipid peroxidation in mouse SN-56 cells assessed as increase in MDA level at 1 to 150 uM incubated for 24 hrs by lipid peroxidation MDA assay kit method relative to control; format: functional; settings: dose 1-150 µM
Collagenase 3 [8] = target: T1, Collagenase 3; experiment: Inhibition of recombinant human MMP13 (104 to 274 residues) using Mca-Pro-Leu-Gly-Leu-Dpa-Ala-Arg-NH2 expressed in Escherichia coli expression system as substrate incubated for 15 mins followed by substrate addition and measured after 2 to 4 hrs by fluorescence based assay
SN-56 [9] = experiment: Neuroprotective activity against H2O2-induced cytotoxicity in mouse SN-56 cells assessed as increase in cell viability at 10 to 100 uM incubated for 24 hrs by MTT assay; format: functional, cell-based; settings: dose 10-100 µM
SN-56 [10] = experiment: Neuroprotective activity against H2O2-induced lipid peroxidation in mouse SN-56 cells assessed as increase in MDA level at 100 uM incubated for 24 hrs by lipid peroxidation MDA assay kit method; format: functional, cell-based
Collagenase 3 [11] = target: T1, Collagenase 3; experiment: Non-competitive inhibition of recombinant human MMP13 (104 to 274 residues) using Mca-Pro-Leu-Gly-Leu-Dpa-Ala-Arg-NH2 expressed in Escherichia coli expression system as substrate by fluorescence based Dixon plot assay; settings: time 2-4 hrs
[12] = target: T4, Matrix metalloproteinase-9; experiment: Non-competitive inhibition of recombinant human MMP9 (107 to 449 residues) using Mca-Pro-Leu-Gly-Leu-Dpa-Ala-Arg-NH2 expressed in Escherichia coli expression system as substrate by substrate by fluorescence based Michaelis-Menten analysis; settings: time 2-4 hrs
Neutrophil collagenase [13] = target: T3, Neutrophil collagenase; experiment: Non-competitive inhibition of recombinant human MMP8 (99 to 269 residues) using Mca-Pro-Leu-Gly-Leu-Dpa-Ala-Arg-NH2 expressed in Escherichia coli expression system as substrate by substrate by fluorescence based Michaelis-Menten analysis; settings: time 2-4 hrs
Target sequence in this assay (P22894 101-467 limits assumed): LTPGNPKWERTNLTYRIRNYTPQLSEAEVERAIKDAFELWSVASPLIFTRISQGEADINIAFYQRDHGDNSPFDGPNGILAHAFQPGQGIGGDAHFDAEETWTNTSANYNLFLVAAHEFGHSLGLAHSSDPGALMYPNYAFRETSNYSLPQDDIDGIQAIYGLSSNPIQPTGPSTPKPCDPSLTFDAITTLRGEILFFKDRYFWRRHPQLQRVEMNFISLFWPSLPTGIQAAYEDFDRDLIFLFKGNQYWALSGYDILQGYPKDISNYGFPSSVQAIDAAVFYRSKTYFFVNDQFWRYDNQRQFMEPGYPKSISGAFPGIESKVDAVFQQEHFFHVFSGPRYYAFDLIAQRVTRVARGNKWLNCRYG

[14] = target: T2, 72 kDa type IV collagenase; experiment: Non-competitive inhibition of recombinant human MMP2 (110 to 452 residues) using Mca-Pro-Leu-Gly-Leu-Dpa-Ala-Arg-NH2 expressed in yeast expression system as substrate by fluorescence based Michaelis-Menten analysis; settings: time 2-4 hrs
Target sequence in this assay (P08253 110-660 limits assumed): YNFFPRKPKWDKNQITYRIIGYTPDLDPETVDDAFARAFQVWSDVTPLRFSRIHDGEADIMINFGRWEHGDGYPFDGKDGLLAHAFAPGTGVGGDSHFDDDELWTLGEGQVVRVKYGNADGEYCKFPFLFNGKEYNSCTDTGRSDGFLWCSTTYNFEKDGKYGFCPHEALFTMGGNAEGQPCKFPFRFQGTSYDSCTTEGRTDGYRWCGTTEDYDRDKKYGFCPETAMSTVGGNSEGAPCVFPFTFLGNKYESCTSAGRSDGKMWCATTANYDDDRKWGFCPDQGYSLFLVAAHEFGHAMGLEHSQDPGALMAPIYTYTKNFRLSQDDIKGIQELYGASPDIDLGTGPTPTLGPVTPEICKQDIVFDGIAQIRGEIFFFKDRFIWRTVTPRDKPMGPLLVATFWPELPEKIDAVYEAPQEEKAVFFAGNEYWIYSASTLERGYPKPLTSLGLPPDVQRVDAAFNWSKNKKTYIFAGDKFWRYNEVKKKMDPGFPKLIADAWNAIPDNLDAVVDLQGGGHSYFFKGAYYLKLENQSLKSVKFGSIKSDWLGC

[15] = target: T2, 72 kDa type IV collagenase; experiment: Non-competitive inhibition of recombinant human MMP2 (110 to 452 residues) using Mca-Pro-Leu-Gly-Leu-Dpa-Ala-Arg-NH2 expressed in yeast expression system as substrate by fluorescence based Dixon plot; settings: time 2-4 hrs
Target sequence in this assay (P08253 110-660 limits assumed): as above

Collagenase 3 [16] = target: T1, Collagenase 3; experiment: Non-competitive inhibition of recombinant human MMP13 (104 to 274 residues) using Mca-Pro-Leu-Gly-Leu-Dpa-Ala-Arg-NH2 expressed in Escherichia coli expression system as substrate by fluorescence based Michaelis-Menten analysis assay; settings: time 2-4 hrs
[17] = target: T4, Matrix metalloproteinase-9; experiment: Non-competitive inhibition of recombinant human MMP9 (107 to 449 residues) using Mca-Pro-Leu-Gly-Leu-Dpa-Ala-Arg-NH2 expressed in Escherichia coli expression system as substrate incubated for 15 mins followed by substrate addition and measured after 2 to 4 hrs by fluorescence based assay; settings: time 2-4.25 hrs
[18] = target: T4, Matrix metalloproteinase-9; experiment: Non-competitive inhibition of recombinant human MMP9 (107 to 449 residues) using Mca-Pro-Leu-Gly-Leu-Dpa-Ala-Arg-NH2 expressed in Escherichia coli expression system as substrate by substrate by fluorescence based Dixon plot; settings: time 2-4 hrs
Collagenase 3 [19] = target: T1, Collagenase 3; experiment: Non-competitive inhibition of recombinant human MMP13 (104 to 274 residues) using Mca-Pro-Leu-Gly-Leu-Dpa-Ala-Arg-NH2 expressed in Escherichia coli expression system as substrate by fluorescence based Lineweaver-Burk plot assay; settings: time 2-4 hrs
[20] = target: T2, 72 kDa type IV collagenase; experiment: Non-competitive inhibition of recombinant human MMP2 (110 to 452 residues) using Mca-Pro-Leu-Gly-Leu-Dpa-Ala-Arg-NH2 expressed in yeast expression system as substrate incubated for 15 mins followed by substrate addition and measured after 2 to 4 hrs by fluorescence based assay; settings: time 2-4.25 hrs
Target sequence in this assay (P08253 110-660 limits assumed): as above

[21] = target: T2, 72 kDa type IV collagenase; experiment: Non-competitive inhibition of recombinant human MMP2 (110 to 452 residues) using Mca-Pro-Leu-Gly-Leu-Dpa-Ala-Arg-NH2 expressed in yeast expression system as substrate by fluorescence based Lineweaver-Burk plot; settings: time 2-4 hrs
Target sequence in this assay (P08253 110-660 limits assumed): as above

[22] = target: T4, Matrix metalloproteinase-9; experiment: Non-competitive inhibition of recombinant human MMP9 (107 to 449 residues) using Mca-Pro-Leu-Gly-Leu-Dpa-Ala-Arg-NH2 expressed in Escherichia coli expression system as substrate by substrate by fluorescence based Lineweaver-Burk plot; settings: time 2-4 hrs
Collagenase 3 [23] = target: T1, Collagenase 3; experiment: Non-competitive inhibition of recombinant human MMP13 (104 to 274 residues) using Mca-Pro-Leu-Gly-Leu-Dpa-Ala-Arg-NH2 expressed in Escherichia coli expression system as substrate incubated for 15 mins followed by substrate addition and measured after 2 to 4 hrs by fluorescence based assay; settings: time 2-4.25 hrs
Neutrophil collagenase [24] = target: T3, Neutrophil collagenase; experiment: Non-competitive inhibition of recombinant human MMP8 (99 to 269 residues) using Mca-Pro-Leu-Gly-Leu-Dpa-Ala-Arg-NH2 expressed in Escherichia coli expression system as substrate by substrate by fluorescence based Dixon plot; settings: time 2-4 hrs
Target sequence in this assay (P22894 101-467 limits assumed): as the sequence (P22894 101-467 limits assumed) above

Neutrophil collagenase [25] = target: T3, Neutrophil collagenase; experiment: Non-competitive inhibition of recombinant human MMP8 (99 to 269 residues) using Mca-Pro-Leu-Gly-Leu-Dpa-Ala-Arg-NH2 expressed in Escherichia coli expression system as substrate by substrate by fluorescence based Lineweaver-Burk plot; settings: time 2-4 hrs
Target sequence in this assay (P22894 101-467 limits assumed): as above

Neutrophil collagenase [26] = target: T3, Neutrophil collagenase; experiment: Non-competitive inhibition of recombinant human MMP8 (99 to 269 residues) using Mca-Pro-Leu-Gly-Leu-Dpa-Ala-Arg-NH2 expressed in Escherichia coli expression system as substrate incubated for 15 mins followed by substrate addition and measured after 2 to 4 hrs by fluorescence based assay; settings: time 2-4.25 hrs
Target sequence in this assay (P22894 101-467 limits assumed): as above

T4 sequence (P14780 whole entry, the tested form may be a part): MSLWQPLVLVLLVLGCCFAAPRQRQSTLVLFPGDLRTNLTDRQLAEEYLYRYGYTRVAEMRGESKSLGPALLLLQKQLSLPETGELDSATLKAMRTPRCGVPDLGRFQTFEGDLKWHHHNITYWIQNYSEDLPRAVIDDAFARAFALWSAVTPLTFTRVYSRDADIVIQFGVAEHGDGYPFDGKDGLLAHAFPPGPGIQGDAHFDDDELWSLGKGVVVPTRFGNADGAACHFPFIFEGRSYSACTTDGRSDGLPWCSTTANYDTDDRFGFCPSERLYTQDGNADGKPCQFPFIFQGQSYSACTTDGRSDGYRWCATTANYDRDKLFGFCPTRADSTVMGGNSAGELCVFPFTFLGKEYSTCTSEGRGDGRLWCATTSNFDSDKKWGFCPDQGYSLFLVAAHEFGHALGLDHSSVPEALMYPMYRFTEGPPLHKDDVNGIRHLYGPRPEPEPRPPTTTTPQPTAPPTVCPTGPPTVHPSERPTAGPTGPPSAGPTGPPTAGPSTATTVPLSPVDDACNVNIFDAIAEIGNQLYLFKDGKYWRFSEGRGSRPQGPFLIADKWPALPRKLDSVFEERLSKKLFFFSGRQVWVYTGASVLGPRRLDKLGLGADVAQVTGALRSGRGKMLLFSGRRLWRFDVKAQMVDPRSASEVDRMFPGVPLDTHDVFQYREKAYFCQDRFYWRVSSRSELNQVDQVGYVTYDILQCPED

| Structure (SMILES) | IC50 [2] [µM] | Activity (SN-56 [3]) | IC50 (Neutrophil collagenase [4]) [µM] | Activity [5] | IC50 [6] [µM] | Activity [7] [%] | IC50 (Collagenase 3 [8]) [µM] | further results |
| --- | --- | --- | --- | --- | --- | --- | --- | --- |
| CCCCNc1cc(-c2cccs2)cc2c1c(=O)[nH]c1ccccc12 | 38 | Dose-dependent effect | > 100 | Non-Toxic | > 100 | – | – | inhibition (Collagenase 3 [1]): 54% |
| CCCCNc1cc(-c2ccccc2)cc2c1c(=O)[nH]c1ccccc12 | 56 | Dose-dependent effect | 86 | Non-Toxic | 99.5 | 100 | 60 | – |
| Nc1cc(-c2cccs2)cc2c1c(=O)[nH]c1ccccc12 | > 100 | Dose-dependent effect | > 100 | Non-Toxic | > 100 | 100 | > 100 | Activity (SN-56 [9]): Active |
| Cn1c(=O)c2c(Nc3ccccc3)cc(-c3ccccc3)cc2c2ccccc21 | > 100 | – | > 100 | Non-Toxic | > 100 | – | > 100 | – |
| Cc1cc(C)cc(Nc2cc(-c3ccco3)cc3c2c(=O)[nH]c2ccccc23)c1 | 21.6 | – | 60 | Non-Toxic | 86 | – | 46 | – |
| COc1ccc(Nc2cc(-c3ccco3)cc3c2c(=O)[nH]c2ccccc23)cc1 | 9 | Dose-dependent effect | 23 | Non-Toxic | 9 | – | 15 | – |
| Cc1c(C)c2c(c(C)c1O)CCC(C)(C(=O)O)O2 (stereo unspecified) | – | – | – | – | – | – | – | Activity (SN-56 [10]): Active |
| COc1ccc(Nc2cc(-c3cccs3)cc3c2c(=O)[nH]c2ccccc23)cc1 | 6.05 | Dose-dependent effect | 7 | Non-Toxic | 5 | 100 | 5.4 | Activity (Collagenase 3 [11]): Active; Activity [12]: Active; Activity (Neutrophil collagenase [13]): Active; Activity [14]: Active; Activity [15]: Active; Activity (Collagenase 3 [16]): Active; inhibition [17]: Active; Activity [18]: Active; Activity (Collagenase 3 [19]): Active; inhibition [20]: Active; Activity [21]: Active; Activity [22]: Active; Activity (SN-56 [9]): Active; inhibition (Collagenase 3 [23]): Active; Activity (Neutrophil collagenase [24]): Active; Activity (Neutrophil collagenase [25]): Active; inhibition (Neutrophil collagenase [26]): Active |
| O=c1[nH]c2ccccc2c2cc(-c3ccccc3)cc(Nc3ccc(F)cc3)c12 | 98 | Dose-dependent effect | > 100 | Non-Toxic | 99 | – | 99 | – |
| Nc1ccc(-c2cc(Nc3ccccc3)c3c(=O)[nH]c4ccccc4c3c2)cc1 | 32 | Dose-dependent effect | 47 | Non-Toxic | 28 | 100 | 73 | Activity (SN-56 [9]): Active |
| Nc1cc(-c2ccccc2)cc2c1c(=O)[nH]c1ccccc12 | > 100 | – | > 100 | Non-Toxic | > 100 | – | > 100 | – |
